This passage reports melting point results from patent US9579306B2, “Substituted 2-imidazolidinones and 2-imidazolones and their use in the treatment of cancer” (UNIVERSITÉ LAVAL, priority 2011, dated 2017).

In general, melting point refers to the temperature of the solid-liquid transition.

As to `CCCN1CCN(c2ccc(S(=O)(=O)Oc3cc(OC)cc(OC)c3)cc2)C1=O` [Compound 104, 3,5-dimethoxyphenyl 4-(2-oxo-3-propylimidazolidin-1-yl)benzenesulfonate], the melting point was 104 to 105 °C.

Consider `CCCN1CCN(c2ccc(S(=O)(=O)Oc3cc(OC)c(OC)c(OC)c3)cc2)C1=O` [Compound 101, 3,4,5-trimethoxyphenyl 4-(2-oxo-3-propylimidazolidin-1-yl)benzenesulfonate], for which the melting point was in the range of 133 to 134 °C.
